Measured values reported in patent US7008531B2, “Treatment of circulating water systems” (Arch Chemicals Inc., priority 2000, dated 2006).

Assays:
[1] = test system: field isolated mustard algae; assay: Remedial laboratory study on algae (flask test, optical density after 5 days); format: cell-based; conditions: for Difference in performance between octadecylamine and dimethyloctadecylamine: 2.5 ppm with PHMB 4.0 ppm, summary of Table 2; for Comments (algae control) / Average Optical Density: Table 2, 5 days; for Average Optical Density: initial absorbance 0.10, <0.2 = algistatic or algicidal
Experimental: Remedial efficacy was evaluated in this example using field isolated mustard algae.
Studies were conducted in 125 ml flasks containing 6 mm borosilicate glass beads (50) and Jaworski's medium (50 ml). The flasks were inoculated with pooled cultures of mustard algae to achieve an initial absorbance of 0.10, as measured using a Milton Roy Spec 20 Spectrophotometer. […] The adjuvants identified in Table 2 were added at levels of 1.25 and 2.5 ppm active ingredient. Busan 20/20™ identified in Table 3 was added at levels of 0.625, 1.25, 2.5 and 5.0 ppm. The performance of the adjuvants were compared to the controls with and without PHMB. The flasks were closed using translucent caps, illuminated for 8 hours using a combination of fluorescent grow lamps and standard incandescent lamps each day and incubated at 80° F. for a period of 5 days. Algal growth was measured after 5 days using a Milton Roy Spec 20 spectrophotometer. The higher the optical density the heavier the growth.

[2] = test system: field isolated mustard algae; assay: Preventative laboratory study on algae (flask test, visual growth score); format: cell-based; conditions: for Average Visual Score: 10 days, 0-4 scale, any score >1 is a preventative failure
Experimental: In preventative laboratory treatment studies, growth conditions are optimised to support a bloom. An experimental flask is prepared with a medium having optimised growth conditions to support a bloom, the medium in the flask is treated with a prescribed concentration of a test formulation, and then inoculated with a low concentration of a bloom-forming organism. The medium is monitored for a period of time to observe whether the formulation is effective at preventing an algal bloom.
These studies used the most problematic organisms, i.e. field isolated mustard algae.
The Jawaorski's medium was modified by the addition of 4 ppm polyhexamethylene biguanide (PHMB) (ex Avecia Inc.) to inhibit the growth of the bacteria present in the algal isolates. The inocula were harvested by aseptic vacuum filtration and the concentration of algal cell masses were combined (“pooled”) and redispersed in a aseptic medium to provide a concentrated pooled inoculum. The amount of inoculum used was varied to achieve an initial optical density of 0.010 in the test flasks. The optical density was determined using a Milton Roy Spec 20 spectrophotometer.
[…] Each flask was then inoculated with a prescribed amount of the pooled inoculum, so that the liquid in the flask had no visible green cast.

[3] = Effect of adjuvant on water clarity (simulated swimming pool water, Hach Turbidimeter and visual inspection); format: physicochemical; conditions: for Turbidity / Visual Observations: simulated pool water with PHMB 6-12 ppm, pH 7.2-7.8, circulated 24 hours; for Turbidity: 70±3° F.; for Effect on water clarity: summary of Table 4, simulated pool water with PHMB
Experimental: Six 10 gallon fish aquariums equipped with a heater and a recirculating pump (to simulate a swimming pool environment) were filled with simulated swimming pool water containing polyhexamethylene biguanide (PHMB) comprising:
The pH of the tanks was maintained between 7.2 and 7.8 and the water temperature was maintained at 70±3° F. After the chemical additions the water was circulated for 24 hours. The water in each tank was then visually inspected and tested for turbidity using a Hach Turbidimeter.

[4] = adjuvant 1.25 ppm + PHMB 4.0 ppm
[5] = adjuvant 2.5 ppm + PHMB 4.0 ppm

| Structure (SMILES) | Difference in performance between octadecylamine and dimethyloctadecylamine [1] | Comments (algae control) [1, 4] | Average Optical Density [1, 4] | Average Optical Density [1, 5] | Average Visual Score [2, 5] | Average Visual Score ([2]; adjuvant 5.0 ppm + PHMB 4.0 ppm) | Average Visual Score ([2]; adjuvant 10.0 ppm + PHMB 4.0 ppm) | Average Visual Score ([2]; adjuvant 15.0 ppm + PHMB 4.0 ppm) | Preventing the field isolated mustard algae outbreak, compared with PHMB alone ([2]; in combination with PHMB, summary of Table 1) | Comments (algae control) [1, 5] | Turbidity ([3]; adjuvant 2.5 ppm) | Visual Observations ([3]; adjuvant 2.5 ppm) | Turbidity ([3]; adjuvant 5.0 ppm) | Visual Observations ([3]; adjuvant 5.0 ppm) | Turbidity ([3]; adjuvant 10.0 ppm) | Visual Observations ([3]; adjuvant 10.0 ppm) | Effect on water clarity [3] |
| --- | --- | --- | --- | --- | --- | --- | --- | --- | --- | --- | --- | --- | --- | --- | --- | --- | --- |
| CCCCCCCCCCCCCCCCCCN(C)C [Dimethyloctadecylamine, dimethyloctadecylamine] | no significant difference | Control | 0.12 | 0.07 | – | – | – | – | – | – | – | – | – | – | – | – | – |
| CCCCCCCCCCCCN [Dodecylamine, dodecylamine] | – | – | 0.08 | 0.12 | 0 | 0 | 0 | 0 | effectiveness | Control | 2.7 NTU | Clear | 1.8 NTU | Clear | 2.5 NTU | Clear | no effect on water clarity |
| CCCCCCCCCCCCCCCCCCN [Octadecylamine, octadecylamine] | no significant difference | Control | 0.16 | 0.08 | – | – | – | – | – | – | – | – | – | – | – | – | – |
| CCCCCCCCCCCCCCN [Tetradecylamine, reference compound] | – | – | – | – | – | – | – | – | – | – | – | – | 10.1 NTU | Cloudy | 19.0 NTU | Cloudy | resulted in water turbidity |
